This passage reports melting point and IC50 results from patent US20240262833A1, “FUSED HETEROCYCLIC DERIVATIVES AS NEGATIVE ALLOSTERIC MODULATORS OF MGLU7 RECEPTOR” (Addex Pharma S.A., priority 2021, published 2024).

In data set [1] the target is T1, human metabotropic glutamate 7 receptor (hmGlu7) (Homo sapiens, UniProt Q14831).
T1 construct: expressed in transfected cells
The data set is described as follows: mGlu7 assay on HEK-expressing human mGlu7: fluorescent cell based Ca2+ mobilization assay (FLIPR), inhibition of EC80 L-AP4 response. The settings on record: HEK-293 cells expressing hmGlu7; EC80 L-AP4 stimulation; mean of at least three independent experiments in duplicate; read-out: Ca2+ Flux (mean IC50). The essentials:
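HEK293 cells stably expressing hmGlu7 with a calcium-redirecting G protein were Fluo4-AM-loaded and assayed at pH 7.4 in HEPES buffer. Compounds were monitored for 180 s for agonism, then cells were challenged with EC80 L-AP4 for 110 s. IC50 was obtained from four-parameter fits, as the mean of ≥3 experiments run in duplicate.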
A general note: Calcium flux is commonly read through the fluorescence of an indicator in the cells.

The melting point is the temperature of the solid-liquid transition. By IC50 is commonly meant the concentration needed to halve the response being measured.

T1 sequence (Q14831 35-922 isoform Q14831-2): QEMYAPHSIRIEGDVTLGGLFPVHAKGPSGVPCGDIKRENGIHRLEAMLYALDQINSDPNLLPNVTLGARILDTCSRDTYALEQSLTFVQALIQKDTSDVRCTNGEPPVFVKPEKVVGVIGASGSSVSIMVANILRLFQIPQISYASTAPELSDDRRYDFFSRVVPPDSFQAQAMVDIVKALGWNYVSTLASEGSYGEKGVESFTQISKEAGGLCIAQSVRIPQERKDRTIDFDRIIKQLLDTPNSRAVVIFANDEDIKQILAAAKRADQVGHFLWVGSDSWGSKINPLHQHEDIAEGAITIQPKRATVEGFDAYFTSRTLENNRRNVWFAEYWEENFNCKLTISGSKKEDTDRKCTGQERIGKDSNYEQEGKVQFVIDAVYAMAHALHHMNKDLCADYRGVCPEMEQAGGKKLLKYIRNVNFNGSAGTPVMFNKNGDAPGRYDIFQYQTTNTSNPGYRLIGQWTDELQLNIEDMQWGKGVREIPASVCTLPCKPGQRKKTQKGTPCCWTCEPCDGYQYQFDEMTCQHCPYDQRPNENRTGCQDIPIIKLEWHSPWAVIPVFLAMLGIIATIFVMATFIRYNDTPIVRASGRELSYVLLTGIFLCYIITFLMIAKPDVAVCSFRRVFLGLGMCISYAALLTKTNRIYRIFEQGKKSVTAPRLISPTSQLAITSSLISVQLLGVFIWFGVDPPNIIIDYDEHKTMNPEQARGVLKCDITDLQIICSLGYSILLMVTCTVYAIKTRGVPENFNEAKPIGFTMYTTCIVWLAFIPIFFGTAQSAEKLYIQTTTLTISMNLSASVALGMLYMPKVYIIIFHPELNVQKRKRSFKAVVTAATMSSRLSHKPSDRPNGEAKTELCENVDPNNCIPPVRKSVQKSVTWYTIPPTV

Regarding `COc1ccccc1-n1ncc2c(C)n(-c3ccc(C)cc3)c(C)c2c1=O` [1-2, 2-(2-Methoxyphenyl)-5,7-dimethyl-6-p-tolyl-2,6-dihydro-1H-pyrrolo[3,4-d]pyridazin-1-one], the melting point was 202 °C. The IC50 in data set [1] fell in the range of 100 to 1000 nM.

As for `Cc1c2cnn(-c3ccccc3F)c(=O)c2c(C)n1-c1ccccc1` [1-21, 2-(2-Fluorophenyl)-5,7-dimethyl-6-phenyl-2,6-dihydro-1H-pyrrolo [3,4-d]pyridazin-1-one], the melting point is 226 °C. Also, the IC50 in data set [1] was 100 to 1000 nM. For `COc1cccc(-n2c(C)c3cnn(-c4ccccc4)c(=O)c3c2C)c1` [1-26, 6-(3-Methoxyphenyl)-5,7-dimethyl-2-phenyl-2,6-dihydro-1H-pyrrolo[3,4-d]pyridazin-1-one], the melting point lay in the range of 213 to 215 °C. Further, in data set [1], the half-inhibitory concentration (IC50) is less than 100 nM. Turning to `CC(=O)c1cccc(-n2c(C)c3cnn(-c4ccccc4)c(=O)c3c2C)c1` [1-36, 6-(3-Acetylphenyl)-5,7-dimethyl-2-phenyl-2,6-dihydro-1H-pyrrolo [3,4-d]pyridazin-1-one], the melting point fell in the range of 202 to 204 °C. In addition, the IC50 in data set [1] was in the range of 100 to 1000 nM. For `COCCNc1cccc(-n2c(C)c3cnn(-c4ccccc4)c(=O)c3c2C)c1` [1-43, 6-(3-(2-Methoxyethylamino)phenyl)-5,7-dimethyl-2-phenyl-2,6-dihydro-1H-pyrrolo[3,4-d]pyridazin-1-one] the same measures were 116 to 119 °C and 100 to 1000 nM. For `Cc1c2cnn(-c3ccccc3)c(=O)c2c(C)n1-c1cccc(O)c1` [1-51, 6-(3-Hydroxyphenyl)-5,7-dimethyl-2-phenyl-2,6-dihydro-1H-pyrrolo[3,4-d]pyridazin-1-one] the same measures were 252 to 254 °C and 1000 to 10000 nM. For `Cc1c2cnn(-c3ccccn3)c(=O)c2c(C)n1-c1cccc(-c2ccccc2)c1` [1-76, 6-([1,1′-Biphenyl]-3-yl)-5,7-dimethyl-2-(pyridin-2-yl)-2,6-dihydro-1H-pyrrolo[3,4-d]pyridazin-1-one], the melting point lay in the range of 106 to 109 °C. Moreover, the IC50 in data set [1] fell in the range of 100 to 1000 nM. For `COc1cccc(-n2c(C)c3cnn(-c4ccc(CN)cc4)c(=O)c3c2C)c1` [1-88, 2-(4-(Aminomethyl)phenyl)-6-(3-methoxyphenyl)-5,7-dimethyl-2,6-dihydro-1H-pyrrolo[3,4-d]pyridazin-1-one] the same measures were 145 to 155 °C and 100 to 1000 nM. For `CCN(CC)c1cccc(-n2c(C)c3cnn(-c4ccccn4)c(=O)c3c2C)c1` [1-100, 6-(3-(Diethylamino)phenyl)-5,7-dimethyl-2-(pyridin-2-yl)-2,6-dihydro-1H-pyrrolo[3,4-d]pyridazin-1-one] the same measures were less than 85 °C and 100 to 1000 nM. For `Cc1c2cnn(-c3ccccc3)c(=O)c2c(C)n1-c1cccc(N2CCCC2)c1` [1-101, 5,7-Dimethyl-2-phenyl-6-(3-(pyrrolidin-1-yl)phenyl)-2,6-dihydro-1H-pyrrolo[3,4-d]pyridazin-1-one] the same measures were 228 to 229 °C and 100 to 1000 nM. Consider `CNCc1ccc(-n2ncc3c(C)n(-c4cccc(OC)c4)c(C)c3c2=O)cc1` [1-109, 6-(3-Methoxyphenyl)-5,7-dimethyl-2-(4-((methylamino)methyl)phenyl)-2,6-dihydro-1H-pyrrolo[3,4-d]pyridazin-1-one], for which the melting point is 150 to 154 °C. The IC50 in data set [1] lay in the range of 100 to 1000 nM. For `COc1cccc(-n2c(C)c3cnn(-c4cc(OC)ccn4)c(=O)c3c2C)c1` [1-123] the same measures were 95 to 97 °C and 1000 to 10000 nM. For `COc1cccc(-n2c(C)c3cnn(-c4ccc(C#N)cc4)c(=O)c3c2C)c1` [1-126] the same measures were 97 to 99 °C and 100 to 1000 nM. On the same counts, the results for `COc1cccc(-n2c(C)c3cnn(-c4ccc(O)nc4)c(=O)c3c2C)c1` [1-131, 2-(6-Hydroxypyridin-3-yl)-6-(3-methoxyphenyl)-5,7-dimethyl-2,6-dihydro-1H-pyrrolo[3,4-d]pyridazin-1-one] are 207 to 209 °C and 100 to 1000 nM. In the case of `CCOC(=O)c1cccc(-n2c(C)c3cnn(-c4ccccn4)c(=O)c3c2C)c1` [1-133], the melting point fell in the range of 86 to 90 °C. For the same compound, the IC50 in data set [1] lay within 100 to 1000 nM.

Compound `COc1cccc(-n2c(C)c3cnn(-c4ccc(C(C)(C)O)cc4)c(=O)c3c2C)c1` [1-135, 2-(4-(2-Hydroxypropan-2-yl)phenyl)-6-(3-methoxyphenyl)-5,7-dimethyl-2,6-dihydro-1H-pyrrolo[3,4-d]pyridazin-1-one] displayed a melting point of 103 to 108 °C. For the same compound, the IC50 in data set [1] is less than 100 nM. For `COc1cccc(-n2c(C)c3cnn(-c4ccc(C(C)O)cc4)c(=O)c3c2C)c1` (centres unmarked) [1-138, 2-(4-(1-Hydroxyethyl)phenyl)-6-(3-methoxyphenyl)-5,7-dimethyl-2,6-dihydro-1H-pyrrolo[3,4-d]pyridazin-1-one] the same measures were 192 to 195 °C and less than 100 nM. For `O=c1c2cn(-c3cccc(N4CCC4)c3)cc2cnn1-c1ccccn1` [1-188, 6-(3-(Azetidin-1-yl)phenyl)-2-(pyridin-2-yl)-2,6-dihydro-1H-pyrrolo[3,4-d]pyridazin-1-one] the same measures were 190 to 192 °C and 1000 to 10000 nM. On the same counts, the results for `Cc1c2cnn(-c3ccccn3)c(=O)c2c(C)n1-c1cccc(-n2nccn2)c1` [1-199, 6-(3-(2H-1,2,3-Triazol-2-yl)phenyl)-5,7-dimethyl-2-(pyridin-2-yl)-2,6-dihydro-1H-pyrrolo[3,4-d]pyridazin-1-one] are 173 °C and 100 to 1000 nM. On to `Cc1c2cnn(-c3ccccn3)c(=O)c2c(C)n1-c1cccc(OC(F)F)c1` [1-202], for which the IC50 in data set [1] was less than 100 nM. Still for that read-out and setting: next, `COc1cccc(-n2c(C)c3cnn(-c4ncccn4)c(=O)c3c2C)c1Cl` [1-203]: 100 to 1000 nM; `COc1cccc(-n2c(C)c3cnn(-c4ncc(C)cn4)c(=O)c3c2C)c1Cl` [1-204]: 100 to 1000 nM. Still for that read-out and setting: next, `Cc1cnc(-n2ncc3c(C)n(-c4cccc(OC5CC5)c4C)c(C)c3c2=O)nc1` [1-205]: less than 100 nM; `COc1cccc(-n2c(C)c3cnn(-c4ccc(C(C)(C)C)cn4)c(=O)c3c2C)c1` [1-206]: 100 to 1000 nM; `COc1cccc(-n2c(C)c3cnn(-c4ncc(C5CC5)cn4)c(=O)c3c2C)c1C` [1-207]: 100 to 1000 nM. The same measure, in the same setting: next, `Cc1c2cnn(-c3ncc(F)cn3)c(=O)c2c(C)n1-c1cc(F)cc(N2CCC2)c1` [1-208]: less than 100 nM; `Cc1c2cnn(-c3ncccc3F)c(=O)c2c(C)n1-c1cc(F)cc(N2CCC2)c1` [1-209]: less than 100 nM; `Cc1c2cnn(-c3ccccn3)c(=O)c2c(C)n1-c1cccc2c1CCN2C` [1-210]: 100 to 1000 nM. Take `Cc1c(OC2CC2)cccc1-n1c(C)c2cnn(-c3ncccc3F)c(=O)c2c1C` [1-211]: in data set [1], the 50% inhibitory concentration (IC50) was less than 100 nM. Same read-out and setting: next, `Cc1c(OC2CC2)cccc1-n1c(C)c2cnn(-c3ncc(F)cn3)c(=O)c2c1C` [1-212]: less than 100 nM; `Cc1c2cnn(-c3ncccc3F)c(=O)c2c(C)n1-c1cccc2c1ccn2C1CC1` [1-213]: less than 100 nM.

`Cc1c2cnn(-c3ncc(F)cn3)c(=O)c2c(C)n1-c1cccc2c1ccn2C1CC1` [1-214]: the IC50 in data set [1] was less than 100 nM. The same measure, in the same setting: next, `COc1cccc(-n2c(C)c3cnn(-c4ccc(C(C)(C)O)cn4)c(=O)c3c2C)c1` [1-216]: less than 100 nM; `Cc1c2cnn(-c3ncccc3F)c(=O)c2c(C)n1-c1cc(N2CCC2)ccc1F` [1-217]: less than 100 nM. On the same count and under the same terms, next, `Cc1c2cnn(-c3ncc(F)cn3)c(=O)c2c(C)n1-c1cc(N2CCC2)ccc1F` [1-218]: 100 to 1000 nM; `Cc1c2cnn(-c3ccc(N4CCOCC4)cc3)c(=O)c2c(C)n1-c1cccc(N2CCC2)c1` [1-219]: 100 to 1000 nM; `Cc1c(O)cccc1-n1c(C)c2cnn(-c3ccc(N4CCOCC4)cc3)c(=O)c2c1C` [1-220]: 1000 to 10000 nM.

Take `Cc1c(OC2CC2)cccc1-n1c(C)c2cnn(-c3ccc(N4CCOCC4)cc3)c(=O)c2c1C` [1-221]: in data set [1], the IC50 lay within 1000 to 10000 nM.

Take `Cc1c2cnn(C34CC(C3)C4)c(=O)c2c(C)n1-c1cccc(N2CCC2)c1` [1-222]: in data set [1], the IC50 lay within 100 to 1000 nM. Same read-out and setting: next, `Cc1c2cnn(-c3ncccn3)c(=O)c2c(C)n1-c1cccc(N2CCC2)c1` [1-223]: 100 to 1000 nM; `COc1cnc(-n2ncc3c(C)n(-c4cccc(N5CCC5)c4)c(C)c3c2=O)nc1` [1-224]: less than 100 nM. On the same count and under the same terms, next, `Cc1c2cnn(-c3ncccc3F)c(=O)c2c(C)n1-c1cccc(N2CCC2)c1` [1-225]: less than 100 nM; `Cc1c2cnn(-c3ncc(F)cn3)c(=O)c2c(C)n1-c1cccc(N2CCC2)c1` [1-226]: less than 100 nM; `Cc1c2cnn(-c3nccs3)c(=O)c2c(C)n1-c1cccc(N2CCC2)c1` [1-227]: 1000 to 10000 nM.

As for `Cc1cnc(-n2ncc3c(C)n(-c4cccc(N5CCC5)c4)c(C)c3c2=O)nc1` [1-228], in data set [1], the IC50 was less than 100 nM. With `COc1ccnc(-n2ncc3c(C)n(-c4cccc(N5CCC5)c4)c(C)c3c2=O)c1` [1-229], the IC50 in data set [1] was in the range of 100 to 1000 nM. Take `Cc1c(OC(F)F)cccc1-n1c(C)c2cnn(-c3ccccn3)c(=O)c2c1C` [1-232]: in data set [1], the IC50 was 100 to 1000 nM. For the compound `COc1cccc(-n2c(C)c3cnn(-c4ccccn4)c(=O)c3c2C)c1F` [1-233], the IC50 in data set [1] lay in the range of 100 to 1000 nM. For `COc1cccc(-n2c(C)c3cnn(-c4ncccn4)c(=O)c3c2C)c1F` [1-234], the half-inhibitory concentration (IC50) in data set [1] lay in the range of 100 to 1000 nM.

Turning to `Cc1c2cnn(-c3ccccn3)c(=O)c2c(C)n1-c1cccc(OC2CC2)c1F` [1-235], in data set [1], the IC50 lay within 100 to 1000 nM. For `Cc1c2cnn(-c3ncccn3)c(=O)c2c(C)n1-c1cccc(OC2CC2)c1F` [1-236], the IC50 in data set [1] is less than 100 nM.

On to `COc1ccc(-n2c(C)c3cnn(-c4ncccn4)c(=O)c3c2C)cn1` [1-241], for which the IC50 in data set [1] is 1000 to 10000 nM.
